From the supplement of paper PMC13380429

Tests used:
Details in all cases: 72 h
Vero E6 [1] = test: relative viability EC50 (midpoint between 100% and the lowest measured viability); higher = less toxic
Calu-3 [2] = test: as above
HepG2 [3] = test: as above
U2OS [4] = test: as above
Vero E6 [5] = test: cell viability relative to DMSO; higher = less toxic
Calu-3 [6] = test: as above
HepG2 [7] = test: as above
Caco-2 [8] = test: as above
U2OS [9] = test: as above
Vero E6 [10] = test: drug sensitivity score (DSS) for viability; higher = more toxic; extreme values may be limits of the assay
Calu-3 [11] = test: as above
HepG2 [12] = test: as above
Caco-2 [13] = test: as above
U2OS [14] = test: as above
Caco-2 [15] = test: relative viability EC50 (midpoint between 100% and the lowest measured viability); higher = less toxic

Row | SMILES | relative viability EC50 (Vero E6 [1]) | relative viability EC50 (Calu-3 [2]) | relative viability EC50 (HepG2 [3]) | relative viability EC50 (U2OS [4]) | cell viability (Vero E6 [5]; 1 nM) | cell viability (Vero E6 [5]; 10 nM) | cell viability (Vero E6 [5]; 100 nM) | cell viability (Vero E6 [5]; 1000 nM) | cell viability (Vero E6 [5]; 10000 nM) | cell viability (Calu-3 [6]; 1 nM) | cell viability (Calu-3 [6]; 10 nM) | cell viability (Calu-3 [6]; 100 nM) | cell viability (Calu-3 [6]; 1000 nM) | cell viability (Calu-3 [6]; 10000 nM) | cell viability (HepG2 [7]; 1 nM) | cell viability (HepG2 [7]; 10 nM) | cell viability (HepG2 [7]; 100 nM) | cell viability (HepG2 [7]; 1000 nM) | cell viability (HepG2 [7]; 10000 nM) | cell viability (Caco-2 [8]; 1 nM) | cell viability (Caco-2 [8]; 10 nM) | cell viability (Caco-2 [8]; 100 nM) | cell viability (Caco-2 [8]; 1000 nM) | cell viability (Caco-2 [8]; 10000 nM) | cell viability (U2OS [9]; 1 nM) | cell viability (U2OS [9]; 10 nM) | cell viability (U2OS [9]; 100 nM) | cell viability (U2OS [9]; 1000 nM) | cell viability (U2OS [9]; 10000 nM) | drug sensitivity score (Vero E6 [10]) | drug sensitivity score (Calu-3 [11]) | drug sensitivity score (HepG2 [12]) | drug sensitivity score (Caco-2 [13]) | drug sensitivity score (U2OS [14]) | relative viability EC50 (Caco-2 [15])
1 | CN(C)CC[C@@](O)(c1ccccc1)c1ccccc1Cl [clofedanol] | > 10 µM | > 10 µM | > 10 µM | > 10 µM | 104% | 96.5% | 99.5% | 88.9% | 101% | 101% | 106% | 102% | 101% | 96.4% | 93.7% | 97.1% | 101% | 94.2% | 113% | 93.4% | 89.6% | 103% | 95.8% | 72.5% | 99.2% | 98.1% | 92.7% | 102% | 100% | 0 | 0 | 0 | 1.8 | 0 | 
2 | CCCCCCCCCCCCCCCC(=O)O[C@@H]1[C@@H](O)[C@@H](O)[C@@H]([C@H](NC(=O)[C@@H]2C[C@@H](CCC)CN2C)[C@H](C)Cl)O[C@@H]1SC [clindamycin-palmitate] | > 10 µM | > 10 µM |  | > 10 µM | 95.5% | 96.6% | 93.5% | 97% | 103% | 99.9% | 102% | 103% | 96.7% | 104% |  |  |  |  |  | 95% | 94.7% | 90.2% | 101% | 95.4% | 94.2% | 99.7% | 97.7% | 101% | 106% | 0 | 0 |  | 0 | 0 | > 10 µM
3 | Cc1cn([C@@H]2C[C@@H](O)[C@H](CO)O2)c(=O)[nH]c1=O [telbivudine] | > 10 µM | > 10 µM |  | > 10 µM | 98.8% | 97.6% | 92.3% | 85% | 99.3% | 118% | 92.2% | 105% | 107% | 114% |  |  |  |  |  | 92.6% | 108% | 99.8% | 106% | 116% | 97.8% | 103% | 96.8% | 99.1% | 105% | 0 | 0 |  | 0 | 0 | > 10 µM
4 | O=C1[C@@H]2[C@H]3CC[C@H](C3)[C@@H]2C(=O)N1C[C@@H]1CCCC[C@H]1CN1CCN(c2nsc3ccccc23)CC1 [lurasidone] | > 10 µM | > 10 µM | > 10 µM | > 10 µM | 104% | 102% | 103% | 99.6% | 97.2% | 99.8% | 97.8% | 105% | 94.7% | 105% | 106% | 106% | 99.5% | 96.9% | 89.2% | 94.5% | 100% | 99.6% | 104% | 64.5% | 104% | 107% | 95.9% | 102% | 88.4% | 0 | 0 | 0.1 | 1.4 | 0 | 
